From US12528790B2, “Amide derivative having antiviral activity” (Shionogi & Co., Ltd., priority 2020, dated 2026) come the findings set out here.

As a reminder, the EC50 is the concentration needed to bring the measured effect to its halfway point.

For the first assay, the system named is RSV A2 strain. Description: In vitro CPE (CytoPathic Effect) inhibition effect evaluation test, RSV type A. The class given is cell-based. As to conditions: human respiratory syncytial virus, HEp-2. The method, then: The test sample is diluted in advance to an appropriate concentration with DMSO, and 3-fold series of serial dilutions were prepared on a 384-well plate (0.32 μL/well). HEp-2 cells (CCL-23; ATCC) adjusted at appropriate number (2.4×10^5 cells/mL) in 2% FBS E-MEM (prepared by adding kanamycin and FBS to Eagle's Minimum Essential Medium; Invitrogen) were added at 12.5 μL/well to the 384-well plate previously aliquoted with the test samples. The RSV A2 strain was diluted to an appropriate concentration in a culture medium and added to the 384-well plate containing the test sample at 12.5 μL/well. The culture medium was added additionally to the 384-well plate, and the test was started with 50 μL/well. Control wells were prepared with only virus-free culture medium. The plate was incubated in a 5% CO2 incubator at 37° C. for 4 days, and the plate was then placed at room temperature for 30 minutes. CellTiter-Glo (registered trademark) 2.0 assay (Promega) was added at 15 μL/well, mixed for 30 seconds, and the plate was placed for approximately 1 hour. The luminescent signal was then measured by EnVision (PerkinElmer). The inhibitory effect of the test agents on RSV-induced CPE was calculated as 0% and 100% inhibition rate for each sample concentration based on the level of remaining viable cells by CellTiter-Glo (registered trademark) 2.0, with the EC50 value for each compound calculated by nonlinear regression as the concentration that inhibits RSV-induced CPE by 50%. In the case of evaluation against RSV type B, RSV B (Wash/18537 strain) was infected in the same manner as the type A, cultured for 5 days, and quantitated in the same manner as for the A2 strain.
In general terms: Damage to the host cells serves as the signal in cytopathic effect assays.
In the case of `Cc1ccc2c(c1)C1(CCN(C3COC3)CC1)CN2c1ncc(C(=O)NC2(C(N)=O)C3CC4CC(C3)CC2C4)c(C(F)(F)F)n1` (stereo not shown) [Compound I-181], the EC50 is 10 to 100 nM.

`O=C(NC1(c2nn[nH]n2)CCCCC1)c1cnc(N2CC3(CCOCC3)c3cc(OC4CCN(c5ncccn5)CC4)ccc32)nc1C(F)(F)F` [Compound I-98]: the EC50 was less than 10 nM.

`O=C(NC1(c2noc(=O)[nH]2)CCCCC1)c1cnc(N2CC3(CCOCC3)c3cc(OC4CCN(c5ncccn5)CC4)ccc32)nc1C(F)(F)F` [Compound I-99] had a concentration giving a half-maximal response (EC50) of less than 10 nM.

The same assay, now with this note: human respiratory syncytial virus, HEp-2, 96 h, read-out: EC50, inhibitory effect against RSV type A (CPE inhibition).
In the case of `O=C(NC1(C(=O)O)C2CC3CC(C2)CC1C3)c1cnc(N2C(=O)C3(C=CCC3)c3cc(OC4CCN(c5ncccn5)CC4)ccc32)nc1C(F)(F)F` (racemic) [Compound I-269], the concentration for a half-maximal effect (EC50) was 1.3 nM.

Staying with this assay, now noted: human respiratory syncytial virus; inhibitory effect against RSV type A (RSV A2 strain), HEp-2 cells, CPE inhibition; read-out: EC50.
On to `O=C(NC1(C(=O)O)CCCCC1)c1cnc(N2CCc3cc(OCC4CN(CC(F)(F)F)CCO4)ccc32)nc1C(F)(F)F` (racemic) [Compound I-58], for which the EC50 is 10 to 100 nM.

Turning to `O=C(NC1(C(=O)O)C2CC3CC(C2)CC1C3)c1cnc(N2CCc3cc(OCCC4CCOCC4)cnc32)cc1C(F)(F)F` (stereo not shown) [Compound I-126], the EC50 is less than 10 nM.

For `O=C(NC1(C(=O)O)C2CC3CC(C2)CC1C3)c1cnc(N2CC3(CCOCC3)c3cc(OC4CCN(c5ncc(C(F)(F)F)cn5)CC4)ccc32)nc1C(F)(F)F` (stereo not shown) [Compound I-274], the EC50 was less than 10 nM.

Regarding `CC(C)(C)C(NC(=O)c1cnc(-c2cn(C3CCC(F)(F)CC3)c3cc(OC4CCN(c5ncccn5)CC4)ccc23)nc1C(F)(F)F)C(=O)O` (racemic) [Compound I-263], the half-maximal effective concentration (EC50) is less than 10 nM.

In the case of `NC(=O)c1cc(C(=O)NC2(C(=O)O)C3CC4CC(C3)CC2C4)c(C(F)(F)F)nc1N1CCc2cc(OCCC3CCOCC3)ccc21` (stereo not shown) [Compound I-156], the 50% effective concentration (EC50) was 100 to 5000 nM.

Consider `O=C(NC1(C(=O)O)C2CC3CC(C2)CC1C3)c1cnc(-c2cn(C3CCC(F)(F)CC3)c3cc(OCCNc4ncccn4)ccc23)nc1C(F)(F)F` (stereo not shown) [Compound I-372], for which the EC50 is less than 10 nM.

`O=C(NC1(C(=O)O)C2CC3CC(C2)CC1C3)c1ccc(-c2cn(CC(=O)N3CCOCC3)c3cc(OC4CCN(c5ncccn5)CC4)ccc23)nc1C(F)(F)F` (stereo not shown) [Compound I-149]: the concentration for a half-maximal effect (EC50) is less than 10 nM.

On to `CC(C)C(=O)N1CCC(Oc2ccc3c(c2)CCN3c2ncc(C(=O)NC3(C(=O)O)CCCCC3)c(C(F)(F)F)n2)CC1` [Compound I-65], for which the EC50 fell in the range of 10 to 100 nM.

As for `O=C(NC1(C(=O)O)C2CC3CC(C2)CC1C3)c1cnc(N2CC3(CCOCC3)c3cc(OC4CCN(c5ncccn5)CC4)ccc32)nc1C(F)(F)CO` (stereo not shown) [Compound I-205], the concentration giving a half-maximal response (EC50) is less than 10 nM.

As to `COc1ccc(N2CCC(Oc3ccc4c(c3)CCN4c3ncc(C(=O)NC4(C(=O)O)CCCCC4)c(C(F)(F)F)n3)CC2)nc1` [Compound I-78], the half-maximal effective concentration (EC50) is less than 10 nM.

For `O=C(NC1(C(=O)O)CCCCC1)c1cnc(N2CC3(CCOCC3)c3nc(OC4CCN(c5ncccn5)CC4)ccc32)nc1C(F)(F)F` [Compound I-108], the concentration for a half-maximal effect (EC50) is less than 10 nM.

Take `O=C(NC1(C(=O)O)C2CC3CC(C2)CC1C3)c1cnc(-c2cn(C3CCC(F)(F)CC3)c3ccc(OC4CCCN(C5COC5)C4)cc23)nc1C(F)(F)F` (racemic) [Compound I-233]: the concentration for a half-maximal effect (EC50) was 10 to 100 nM.

`O=C(NC1(C(=O)O)C2CC3CC(C2)CC1C3)c1cnc(N2CC3(CCCCC3)c3cc(O[C@H]4CC[C@@H](ON=C5CCC(F)(F)CC5)CC4)ccc32)nc1C(F)(F)F` (stereo partly shown) [Compound I-457]: the concentration for a half-maximal effect (EC50) was in the range of 10 to 100 nM.

In the case of `COc1cccc(/C=C/c2ccc3c(c2)CCN3c2ncc(C(=O)NC3(C(=O)O)CCCCC3)c(C(F)(F)F)n2)c1` [Compound I-24], the EC50 lay within 10 to 100 nM.

For the compound `CN(C)S(=O)(=O)NC(=O)C1(NC(=O)c2cnc(N3CCc4cc(OCCC5CCOCC5)ccc43)nc2C(F)(F)F)CCCCC1` [Compound I-35], the EC50 is 10 to 100 nM.

Turning to `O=C(NC1(C(=O)O)C2CC3CC(C2)CC1C3)c1ccc(-c2cn(C(=O)OC3CCCCC3)c3cc(OC4CCN(c5ncccn5)CC4)ccc23)nc1C(F)(F)F` (stereo not shown) [Compound I-150], the EC50 was less than 10 nM.

In the case of `COCCCCOc1ccc2c(c1)CCN2c1ncc(C(=O)NC2(C(=O)O)C3CC4CC(C3)CC2C4)c(C(F)(F)F)n1` (stereo not shown) [Compound I-22], the EC50 was less than 10 nM.

For `O=C(NC1(C(=O)O)C2CC3CC(C2)CC1C3)c1cnc(N2CC3(CCOCC3)c3cc(C4CC4)ccc32)nc1C(F)(F)F` (stereo not shown) [Compound I-115], the EC50 was less than 10 nM.

Consider `O=C(NC1(C(=O)O)C2CC3CC(C2)CC1C3)c1cnc(N2CC3(CCOCC3)c3cc(O[C@H]4CC[C@@H](n5cccn5)CC4)ccc32)nc1C(F)(F)F` (stereo partly shown) [Compound I-192], for which the EC50 was less than 10 nM.

As to `CC1CN(c2ncccn2)CCC1Oc1ccc2c(-c3ncc(C(=O)NC4(C(=O)O)C5CC6CC(C5)CC4C6)c(C(F)(F)F)n3)cn(C3CCC(F)(F)CC3)c2c1` (single isomer, unassigned) [Compound I-391], the concentration giving a half-maximal response (EC50) was less than 10 nM.

For `COc1cccc(C(=O)Nc2ccc3c(c2)CCN3c2ncc(C(=O)NC3(C(=O)O)CCCCC3)c(C(F)(F)F)n2)c1` [Compound I-39], the 50% effective concentration (EC50) lay within 10 to 100 nM.

With `O=C(NC1(C(=O)O)CCC1)c1cnc(N2CCc3cc(OC4CCN(c5ncccn5)CC4)ccc32)nc1C(F)(F)F` [Compound I-46], the EC50 is 10 to 100 nM.

As for `O=C(NC1(C(=O)O)C2CC3CC(C2)CC1C3)c1cnc(-c2cn(C3CCC(F)(F)CC3)c3cc(OC4CCN(CC(F)(F)C(F)(F)F)CC4)ccc23)nc1C(F)(F)F` (stereo not shown) [Compound I-408], the EC50 is less than 10 nM.

For the compound `O=C(NC1(C(=O)O)C2CC3CC(C2)CC1C3)c1cnc(-c2cn(C3CCC(F)(F)CC3)c3cc(OCCN4CC(F)(F)C4)ccc23)nc1C(F)(F)F` (stereo not shown) [Compound I-426], the EC50 is less than 10 nM.

`CC1CC(Oc2ccc3c(-c4ncc(C(=O)NC5(C(=O)O)C6CC7CC(C6)CC5C7)c(C(F)(F)F)n4)cn(C4CCC(F)(F)CC4)c3c2)CCN1CC(F)(F)F` (stereo not shown) [Compound I-414]: the EC50 is less than 10 nM.

Take `O=C(NC1(C(=O)O)C2CC3CC(C2)CC1C3)c1ccc(-c2cn([C@H]3CC[C@@H](O)CC3)c3cc(OC4CCN(c5ncccn5)CC4)ccc23)nc1C(F)(F)F` (stereo partly shown) [Compound I-194]: the EC50 was less than 10 nM.

On to `O=C(NC1(C(=O)O)C2CC3CC(C2)CC1C3)c1cnc(-c2cn(C3CCC(F)(F)CC3)c3cc(OC4CCC(N5CCC(F)(F)C5)CC4)ccc23)nc1C(F)(F)F` (single isomer, unassigned) [Compound I-427], for which the EC50 was less than 10 nM.

On to `NC(=O)C1(NC(=O)c2cnc(N3CC4(CCOCC4)c4cc(OCCN5CCOCC5)ccc43)nc2C(F)(F)F)C2CC3CC(C2)CC1C3` (stereo not shown) [Compound I-170], for which the EC50 is less than 10 nM.

On to `CC1CN(c2ncccn2)CCC1Oc1ccc2c(-c3ncc(C(=O)NC4(C(=O)O)C5CC6CC(C5)CC4C6)c(C(F)(F)F)n3)cn(C3CCC(F)(F)CC3)c2c1` (stereo not shown) [Compound I-273], for which the EC50 was less than 10 nM.

Consider `O=C(NC1(C(=O)O)CCCCC1)c1cnc(N2CCc3cc(OC4CCN(c5nccc(=O)[nH]5)CC4)ccc32)nc1C(F)(F)F` [Compound I-69], for which the concentration for a half-maximal effect (EC50) was in the range of 100 to 5000 nM.

For `COc1cccc(COc2ccc3c(n2)C2(CCOCC2)CN3c2ncc(C(=O)NC3(C(=O)O)CCCCC3)c(C(F)(F)F)n2)c1` [Compound I-103], the EC50 is less than 10 nM.

On to `O=C(NC1(C(=O)O)C2CC3CC(C2)CC1C3)c1ccc(-c2cn(-c3cccc(F)c3)c3cc(OC4CCN(c5ncccn5)CC4)ccc23)nc1C(F)(F)F` (stereo not shown) [Compound I-390], for which the 50% effective concentration (EC50) was less than 10 nM.

As to `O=C(NC1(C(=O)O)C2CC3CC(C2)CC1C3)c1cnc(N2CC3(CCOCC3)c3cc(CC4CCN(c5ncccn5)CC4)ccc32)nc1C(F)(F)F` (stereo not shown) [Compound I-119], the EC50 was less than 10 nM.

Still in this assay, the particulars now being: inhibitory effect against RSV type A (RSV A2 strain), HEp-2 cells, CPE inhibition; read-out: EC50.
`O=C(NC1(C(=O)O)C2CC3CC(C2)CC1C3)c1ccc(-c2cn(-c3ccccc3F)c3cc(OC4CCN(c5ncccn5)CC4)ccc23)nc1C(F)(F)F` (stereo not shown) [Compound I-313]: the EC50 was less than 10 nM.

For the compound `O=C(NC1(C(=O)O)C2CC3CC(C2)CC1C3)c1ccc(N2CC3(CCOCC3)c3cc(OCCC4CCOCC4)ccc32)nc1C(F)(F)F` (stereo not shown) [Compound I-101], the EC50 is less than 10 nM.

In the case of `Cn1ncc2c1CCC(Oc1ccc3c(c1)C1(CCOCC1)CN3c1ncc(C(=O)NC3(C(=O)O)C4CC5CC(C4)CC3C5)c(C(F)(F)F)n1)C2` (single isomer, unassigned) [Compound I-191], the concentration giving a half-maximal response (EC50) was less than 10 nM.

For `O=C(NC1(C(=O)O)C2CC3CC(C2)CC1C3)c1cnc(N2CC3(CCS(=O)(=O)CC3)c3cc(OC4CCN(c5ncc(F)cn5)CC4)ccc32)nc1C(F)(F)F` (stereo not shown) [Compound I-365], the concentration giving a half-maximal response (EC50) is less than 10 nM.

`COC1CCC(n2cc(-c3ncc(C(=O)NC4(C(=O)O)C5CC6CC(C5)CC4C6)c(C(F)(F)F)n3)c3ccc(OC4CCN(c5ncc(F)cn5)CC4)cc32)CC1` (single isomer, unassigned) [Compound I-424]: the 50% effective concentration (EC50) is less than 10 nM.

Turning to `O=C(NC1(C(=O)O)C2CC3CC(C2)CC1C3)c1cnc(N2CC3(CC4CCC(C3)O4)c3cc(OC4CCN(c5ncccn5)CC4)ccc32)nc1C(F)(F)F` (single isomer, unassigned) [Compound I-300], the EC50 is less than 10 nM.
